ChEMBL document CHEMBL3046657, “Quantum chemical QSAR study of flavones and their radical-scavenging activity” (Med Chem Res, 2007)

Each molecule was assayed on Radical scavenging activity (assay: Antioxidant activity assessed as inhibition of DPPH radical […] at 33 uM after 5 min by spectrophotometric analysis).
Type: functional

Structure (SMILES)	inhibition [%]
O=c1c(O)c(-c2ccc(O)c(O)c2)oc2cc(O)ccc12	79
O=c1c(O)c(-c2ccc(O)c(O)c2)oc2cc(O)cc(O)c12	89.8
O=c1c(O)c(-c2ccc(O)cc2O)oc2cc(O)cc(O)c12	96.5
O=c1c(O)c(-c2cc(O)c(O)c(O)c2)oc2cc(O)cc(O)c12	72.8
O=C1c2ccc(O)cc2O[C@H](c2ccc(O)c(O)c2)[C@H]1O	91.9
O=c1c(O)c(-c2ccccc2)oc2ccccc12	66
O=C1CC(c2ccccc2)Oc2ccccc21 (stereo not given)	2.6
O=c1c(O)c(-c2ccc(O)cc2)oc2cc(O)cc(O)c12	93.5
COc1cccc2c(=O)cc(-c3ccccc3)oc12	0.7
O=C1c2c(O)cc(O)cc2O[C@H](c2ccc(O)c(O)c2)[C@H]1O	94.8
O=c1cc(-c2ccccc2)oc2cc(O)cc(O)c12	1.1
COc1ccc([C@@H]2CC(=O)c3c(O)cc(O)cc3O2)cc1O	30
O=c1cc(-c2ccccc2)oc2cc(O)ccc12	2.8
O=c1c(O)c(-c2cc(O)c(O)c(O)c2)oc2cc(O)ccc12	82.3
O=C1C[C@@H](c2ccc(O)cc2)Oc2cc(O)cc(O)c21	6.3
O=c1cc(-c2ccccc2)oc2cccc(O)c12	0.6
O=c1cc(-c2ccccc2)oc2ccccc12	1.5
O=c1cc(-c2ccc(O)cc2)oc2cc(O)cc(O)c12	0.7
O=c1c(O)c(-c2ccccc2)oc2cc(O)cc(O)c12	91.8
COc1cc(-c2oc3cc(O)cc(O)c3c(=O)c2O)cc(O)c1O	84.6
